Entries after “also recorded” stand apart in the source; their conditions may differ. Ends that are not written are not given here. * marks the point of attachment. Biotin = O=C1N[C@H]2[C@H](CS[C@H]2CCCCC(=O)*)N1
What was measured:
[1] = tested on: E. coli K-12 MG1655; assay: E. coli growth inhibition (growth curves, OD595); format: cell-based; details: 22.4 µM, approx. 10^7 CFU/ml, LB medium, 37°C with shaking, OD595 every 20 min for 7 h 20 min, PBS negative control, Figure 2
Method: The E. coli K-12 MG1655 strain was first inoculated into LB medium and incubated at 37°C with shaking for 16 h. After incubation, the culture was diluted to approximately 10^7 CFU/ml using LB medium. Then, 22.4 µM of N-terminal biotinylated LfcinB (Kelowna Inc.), LfcinB (Kelowna Inc.) or biotin (Thermo) were individually added to the diluted cultures in a 96-well plate. PBS was used as a negative control. Finally, each compound or PBS with E. coli was incubated at 37°C with shaking and the growth curves were observed by measuring the OD595 value every 20 min for 7 h 20 min in a microplate reader (Synergy 2, BioTek®).

[2] = tested on: HyaF; assay: Fluorescence polarization assay, HyaF; format: binding, E. coli
Text: (§1) FP assays, investigations of the binding between two molecules in a homogeneous aqueous environment, were used to validate the identified 153 proteins. […] If a fluorophore only binds to a small molecule, such as peptide, the rotation of the complex is fast and the light emits in a different plane of polarization. Therefore, the degree of polarization is low. However, once a fluorophore binds to a large molecule, the bound complex is stimulated with polarized light. The light emits in the same polarized plane, and the complex is maintained in the same plane of polarization, causing an increase in the degree of polarization [22]–[24]. The amount of molecules binding to a fluorophore influences the degree of polarization. In this study, LfcinB was labeled with DyLight™ 549 as a reference value. Once the protein bound to LfcinB, like a fluorophore binds to a large molecule, a high degree of polarization is expected.
(§2) Before the assays, LfcinB was labeled with DyLight™ 549 and tested proteins were quantified with a Pierce® bicinchoninic acid (BCA™) protein assay (Thermo). To label the LfcinB, DyLight™ 549-NHS ester and LfcinB (68∶1, mole/mole) were mixed in PBS at room temperature for 1 h, a D-Salt™ polyacrylamide desalting column (Thermo) was used to remove excess dye and the labeling efficiency of the eluted solution was calculated. […]

[3] = tested on: YcaO; assay: Fluorescence polarization assay, YcaO; format: binding, E. coli; details: 100 nM DyLight 549-labeled LfcinB; protein 0.025-0.4 µM; data not shown
Text: as §1, §2

[4] = tested on: YqiA; assay: Fluorescence polarization assay, YqiA; format: binding, E. coli; details: 100 nM DyLight 549-labeled LfcinB; protein 0.025-0.4 µM; data not shown
Text: as §1, §2

[5] = tested on: Ppc; assay: Fluorescence polarization assay, Ppc; format: binding, E. coli; details: 100 nM DyLight 549-labeled LfcinB; protein 0.025-0.4 µM; data not shown
Text: as §1, §2

[6] = tested on: Bovine Serum Albumin, BSA; assay: Fluorescence polarization assay, BSA negative control; format: binding; details: BSA 0.4, 0.2, 0.1, 0.05 µM (negative control); 100 nM labeled LfcinB
Text: as §1, §2

[7] = tested on: other 15 knockout strains; assay: Knockout assay, other 15 knockout strains; format: cell-based, E. coli K-12; details: 32 µM LfcinB, LB medium, 37°C
Method: The E. coli K-12 BW25113 (isogenic parent) strain and the 16 knockout strains were obtained from the E. coli Genetic Resources at the Coli Genetic Stock Center (CGSC) at Yale University. The strains were inoculated into LB medium, and incubated at 37°C with shaking. After 16 h of incubation, the cultures were diluted to approximately 10^7 CFU/ml with LB medium. Thirty-two µM of LfcinB were then added to the cultures in a 96-well plate. PBS was used as a negative control. Cultures with LfcinB or PBS were then incubated at 37°C with shaking in a microplate reader and the growth was observed by measuring the OD595 value every 20 min for 7 h 20 min.

[8] = tested on: E. coli MG1655; assay: Pyruvate assay: E. coli growth (OD595); format: cell-based; details: 32 µM LfcinB
Text: To confirm one of the mechanisms of LfcinB action in pyruvate metabolism, a minimal medium was chosen; because general LB medium contains many carbon sources, including sugars, alcohols and organic acids, this minimal medium allowed glucose to be the sole carbon source in the pyruvate assays. Minimal medium consisted of 6 g/l NaH2PO4, 3 g/l K2HPO4, 0.5 g/l NaCl, 0.12 g/l MgSO4, 1 g/l NH4Cl, 0.01 g/l CaCl2 and 5 g/l glucose. A 0.22 µm filter (Millex®GS, Millipore) was used to filter the minimal medium. E. coli MG1655 was first inoculated into the minimal medium and incubated at 37°C for 16 h with shaking as a preculture. The preculture was diluted 100-fold with the minimal medium in 96-well plate, and 32 µM of LfcinB were added. The mixture was incubated with shaking in a microplate reader at 37°C, and the absorbance was measured after 9 h. Finally, the mixture was harvested by centrifugation at 3452 g for 5 min at 4°C, and each supernatant was removed. The pellets were then stored at −80°C.

For “Lactoferricin B (Biotin-FKCRRWQWRMKKLGAPSITCVRRAF; ends and bridges not checked) [LfcinB]”, the “growth curves / inhibition of E. coli growth” value [1] was “exhibited the same inhibition of E. coli growth; also recorded: exhibit the same antibacterial activity”, the “degree of polarization vs BSA” value ([2]; 100 nM DyLight 549-labeled LfcinB, protein 0.025-0.4 µM, PBS, 0.005% BSA, 0.01% Triton X-100, room temperature, 1 h, ex 540 nm, em 590 nm, Figure 5A) was “higher polarization than the negative control” and the “concentration dependence of polarization” value ([2]; HyaF, two-fold dilution 0.4 µM to 0.025 µM, 100 nM labeled LfcinB) was “increased with increasing concentrations of these 4 proteins”. The “binding to YcaO” value [3] was “confirmed to bind to LfcinB”, the “binding to YqiA” value [4] was “confirmed to bind to LfcinB” and the “binding to Ppc” value [5] was “confirmed to bind to LfcinB”. For the same substance, the “concentration dependence of polarization” value [6] was “remained constant with increasing concentrations of BSA”, the “growth with LfcinB” value [7] was “the growth was inhibited by LfcinB” and the “Value of OD595 after 9 h incubation” value ([8]; minimal medium with glucose, 37°C, 9 h, E. coli without LfcinB 0.325±0.011) was 0.267±0.011. The “Initial value of OD595” value ([8]; minimal medium with glucose, 37°C, E. coli without LfcinB 0.057±0.002) was 0.058±0.001 and the “amount (OD595) of E. coli after 9 h with vs without LfcinB” value ([8]; minimal medium, 9 h) was “lower than the level of E. coli without LfcinB”.
